According to PubChem BioAssay AID330 (DTP/NCI, 2004):
Several values for one entry are separate records, joined by “and”; a condition that tells them apart may be missing. Equal entries are not always repeated. Inconclusive results and toxic doses are left out.

System: P388 leukemia ip, CD2F1 mice, survival T/C
Test: NCI In Vivo Anticancer Drug Screen. Data for tumor model P388 Leukemia (intraperitoneal) in CD2F1 (CDF1) mice
Settings: endpoint: median survival time, higher = longer survival
Procedure, shortened: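 Mice carrying the transplanted tumor received test compound or vehicle. Survival was recorded in each group, and the value is the treated-group measurement divided by that of the vehicle-treated control group.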

[1] = dose: 60.0 mg/kg/injection, schedule: Q01DX005 (ip), vehicle: saline with Tween-80
[2] = dose: 120.0 mg/kg/injection, schedule: Q01DX005 (ip), vehicle: saline with Tween-80
[3] = dose: 50.0 mg/kg/injection, schedule: Q01DX009 (ip), vehicle: saline with Tween-80

Q: `O=C1NC2CCCC1C(c1ccccc1Cl)NC2c1ccccc1Cl` (centres undefined) was tested. Which T/C (dose: 100.0 mg/kg/injection, schedule: Q04DX003 (ip), vehicle: suspension in saline) did it give?
A: 98 % of control

Q: And the T/C (dose: 200.0 mg/kg/injection, schedule: Q04DX003 (ip), vehicle: suspension in saline)?
A: 100 % of control

Q: And the T/C (dose: 400.0 mg/kg/injection, schedule: Q04DX003 (ip), vehicle: suspension in saline)?
A: 100 % of control

Q: `O=C(O)c1ccnc2nc[nH]c12` was tested. Which T/C (dose: 100.0 mg/kg/injection, schedule: Q04DX002 (ip), vehicle: Klucel (hydroxypropylcellulose) (HPC)) did it give?
A: 100 % of control

Q: What about the T/C (dose: 200.0 mg/kg/injection, schedule: Q04DX002 (ip), vehicle: Klucel (hydroxypropylcellulose) (HPC)) of the same compound?
A: 106 % of control

Q: And the T/C (dose: 400.0 mg/kg/injection, schedule: Q04DX002 (ip), vehicle: Klucel (hydroxypropylcellulose) (HPC))?
A: 100 % of control

Q: Which T/C (dose: 1.56 mg/kg/injection, schedule: Q01DX009 (ip), vehicle: water) does the source give for `CCCCSc1ccc(NN=O)nc1` here?
A: 118 % of control

Q: What about the T/C (dose: 6.25 mg/kg/injection, schedule: Q01DX009 (ip), vehicle: water) of the same compound?
A: 151 % of control

Q: `CC(C)SC(=S)Nc1cccc(F)c1` was tested. Which T/C (dose: 50.0 mg/kg/injection, schedule: Q01DX009 (ip), vehicle: suspension in saline) did it give?
A: 107 % of control

Q: What about the T/C (dose: 100.0 mg/kg/injection, schedule: Q01DX009 (ip), vehicle: suspension in saline) of the same compound?
A: 109 % of control

Q: What about the T/C (dose: 200.0 mg/kg/injection, schedule: Q01DX009 (ip), vehicle: suspension in saline) of the same compound?
A: 107 % of control

Q: `CC[N+]1(CC)c2ccccc2CC1C` (centres undefined) was tested. Which T/C (dose: 6.25 mg/kg/injection, schedule: Q01DX001 (ip), vehicle: saline) did it give?
A: 97 % of control

Q: What about the T/C (dose: 12.5 mg/kg/injection, schedule: Q01DX001 (ip), vehicle: saline) of the same compound?
A: 101 % of control

Q: What about the T/C (dose: 25.0 mg/kg/injection, schedule: Q01DX001 (ip), vehicle: saline) of the same compound?
A: 104 % of control

Q: With `COc1ccc2nc(-c3ccccc3)cc(N=[N+]=[N-])c2c1` as the compound, how does the T/C [1] read?
A: 100 % of control

Q: And the T/C [2]?
A: 97 % of control

Q: What about the T/C (dose: 240.0 mg/kg/injection, schedule: Q01DX005 (ip), vehicle: saline with Tween-80) of the same compound?
A: 102 % of control

Q: Which T/C (dose: 60.0 mg/kg/injection, schedule: Q01DX005 (ip), vehicle: saline) does the source give for `O=C(CC(O)c1cccnc1)CC(O)c1cccnc1` (centres undefined) here?
A: 100 % of control

Q: What about the T/C (dose: 120.0 mg/kg/injection, schedule: Q01DX005 (ip), vehicle: saline) of the same compound?
A: 114 % of control

Q: And the T/C (dose: 240.0 mg/kg/injection, schedule: Q01DX005 (ip), vehicle: saline)?
A: 114 % of control

Q: What does the source list for `O=c1[nH]cnc2c1nnn2C1OC(CO)C(O)C1O` (centres undefined)?
A: T/C (dose: 25.0 mg/kg/injection, schedule: Q01DX005 (ip), vehicle: saline): 102 % of control and 105 % of control; T/C (dose: 50.0 mg/kg/injection, schedule: Q01DX005 (ip), vehicle: saline): 107 % of control and 111 % of control; T/C (dose: 100.0 mg/kg/injection, schedule: Q01DX005 (ip), vehicle: saline): 114 % of control and 118 % of control; T/C (dose: 200.0 mg/kg/injection, schedule: Q01DX005 (ip), vehicle: saline): 111 % of control and 116 % of control; T/C (dose: 400.0 mg/kg/injection, schedule: Q01DX005 (ip), vehicle: saline): 100 % of control

Q: `O=C(Nc1ccc(Cl)cc1)Nc1nnc2nc(C(C(=O)c3ccc(O)cc3O)c3nc4nnc(NC(=O)Nc5ccc(Cl)cc5)n4[nH]c3=O)c(=O)[nH]n12` was tested. Which T/C [1] did it give?
A: 103 % of control

Q: What about the T/C [2] of the same compound?
A: 95 % of control

Q: What does the source list for `CC(=O)Oc1cccn(C)c1=O`?
A: T/C (dose: 37.5 mg/kg/injection, schedule: Q01DX009 (ip), vehicle: saline): 108 % of control; T/C (dose: 75.0 mg/kg/injection, schedule: Q01DX009 (ip), vehicle: saline): 103 % of control; T/C (dose: 150.0 mg/kg/injection, schedule: Q01DX009 (ip), vehicle: saline): 113 % of control; T/C (dose: 300.0 mg/kg/injection, schedule: Q01DX009 (ip), vehicle: saline): 119 % of control; T/C (dose: 500.0 mg/kg/injection, schedule: Q01DX009 (ip), vehicle: saline): 117 % of control

Q: For `CCN(CC)[P+](C1=C(Cl)C(=O)C(C#N)=C(C#N)C1=O)(N(CC)CC)N(CC)CC`, which T/C (dose: 3.1 mg/kg/injection, schedule: Q01DX009 (ip), vehicle: saline with Tween-80) is on record?
A: 108 % of control

Q: And the T/C (dose: 6.25 mg/kg/injection, schedule: Q01DX009 (ip), vehicle: saline with Tween-80)?
A: 99 % of control

Q: What about the T/C (dose: 12.5 mg/kg/injection, schedule: Q01DX009 (ip), vehicle: saline with Tween-80) of the same compound?
A: 99 % of control

Q: What about the T/C (dose: 25.0 mg/kg/injection, schedule: Q01DX009 (ip), vehicle: saline with Tween-80) of the same compound?
A: 87 % of control

Q: What about the T/C [3] of the same compound?
A: 101 % of control

Q: What does the source list for `CSCOC/C=C(\C)CCC=C(C)C`?
A: T/C [3]: 98 % of control; T/C (dose: 100.0 mg/kg/injection, schedule: Q01DX009 (ip), vehicle: saline with Tween-80): 100 % of control; T/C (dose: 200.0 mg/kg/injection, schedule: Q01DX009 (ip), vehicle: saline with Tween-80): 114 % of control

Q: What does the source list for `CCCCCCCCC(O)C#CC(O)CCCCCCCC` (centres undefined)?
A: T/C (dose: 12.5 mg/kg/injection, schedule: Q01DX005 (ip), vehicle: saline with Tween-80): 92 % of control; T/C (dose: 25.0 mg/kg/injection, schedule: Q01DX005 (ip), vehicle: saline with Tween-80): 90 % of control; T/C (dose: 50.0 mg/kg/injection, schedule: Q01DX005 (ip), vehicle: saline with Tween-80): 101 % of control and 91 % of control; T/C (dose: 100.0 mg/kg/injection, schedule: Q01DX005 (ip), vehicle: saline with Tween-80): 100 % of control
